# From PubChem BioAssay (NCI)
#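 These data come from cells grown in 96-well plates and exposed to compound for 48 hours at five concentrations. Abbreviation: GI50, concentration required for 50% inhibition of growth. TGI denotes the concentration required for complete inhibition of growth.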
# Tested on: UO-31 renal
# Assay: DTP human tumour cell line panel, 48 h
SMILES,TGI [µM],GI50 [µM]
O=c1c2ncn(C3CCCO3)c2n(-c2ccccc2)c(=S)n1-c1ccccc1 (stereo unspecified),> 100,
O=C1CCC/C=C\C[C@H]2C=CC(=O)/C2=C/C[C@H](C/C=C\CC(F)(F)F)O1,0.624,0.298
Oc1cn(-c2ccc(Cl)cc2)nc1-c1n[nH]c(=S)n1-c1ccccc1,62.7,
CC(C)=CCc1cc(O)cc2c1OC(C=C(C)C)C1=C2C(=O)C2=C(C1=O)S(=O)(=O)CCN2 (stereo unspecified),> 16.7,6.23

# Tested on: SF-295 CNS
# Assay: DTP human tumour cell line panel, 48 h
SMILES,TGI [µM],GI50 [µM]
O=c1c2ncn(C3CCCO3)c2n(-c2ccccc2)c(=S)n1-c1ccccc1 (stereo unspecified),> 100,
CC(=O)c1c(O)ccc2c1c1c(n2C)C(=O)c2ccccc2C1=O,> 100,
O=C1CCC/C=C\C[C@H]2C=CC(=O)/C2=C/C[C@H](C/C=C\CC(F)(F)F)O1,1.13,0.401
Oc1cn(-c2ccc(Cl)cc2)nc1-c1n[nH]c(=S)n1-c1ccccc1,19.8,

# Tested on: MCF7 breast
# Assay: DTP human tumour cell line panel, 48 h
SMILES,TGI [µM],GI50 [µM]
O=c1c2ncn(C3CCCO3)c2n(-c2ccccc2)c(=S)n1-c1ccccc1 (stereo unspecified),> 100,
CC(=O)c1c(O)ccc2c1c1c(n2C)C(=O)c2ccccc2C1=O,> 21,
O=C1CCC/C=C\C[C@H]2C=CC(=O)/C2=C/C[C@H](C/C=C\CC(F)(F)F)O1,3.16,0.336
Oc1cn(-c2ccc(Cl)cc2)nc1-c1n[nH]c(=S)n1-c1ccccc1,21.9,
CC(C)=CCc1cc(O)cc2c1OC(C=C(C)C)C1=C2C(=O)C2=C(C1=O)S(=O)(=O)CCN2 (stereo unspecified),6.97,2.79

# Tested on: NCI-H23 lung
# Assay: DTP human tumour cell line panel, 48 h
SMILES,TGI [µM],GI50 [µM]
O=c1c2ncn(C3CCCO3)c2n(-c2ccccc2)c(=S)n1-c1ccccc1 (stereo unspecified),> 100,
O=C1CCC/C=C\C[C@H]2C=CC(=O)/C2=C/C[C@H](C/C=C\CC(F)(F)F)O1,3.67,0.698
Oc1cn(-c2ccc(Cl)cc2)nc1-c1n[nH]c(=S)n1-c1ccccc1,23.9,
CC(C)=CCc1cc(O)cc2c1OC(C=C(C)C)C1=C2C(=O)C2=C(C1=O)S(=O)(=O)CCN2 (stereo unspecified),12.9,3.85

# Tested on: HOP-62 NSCLC
# Assay: DTP human tumour cell line panel, 48 h
SMILES,TGI [µM],GI50 [µM]
O=c1c2ncn(C3CCCO3)c2n(-c2ccccc2)c(=S)n1-c1ccccc1 (stereo unspecified),> 100,
CC(=O)c1c(O)ccc2c1c1c(n2C)C(=O)c2ccccc2C1=O,> 100,
O=C1CCC/C=C\C[C@H]2C=CC(=O)/C2=C/C[C@H](C/C=C\CC(F)(F)F)O1,0.757,0.333
Oc1cn(-c2ccc(Cl)cc2)nc1-c1n[nH]c(=S)n1-c1ccccc1,22.7,
CC(C)=CCc1cc(O)cc2c1OC(C=C(C)C)C1=C2C(=O)C2=C(C1=O)S(=O)(=O)CCN2 (stereo unspecified),> 16.7,5.66

# Tested on: 786-0 renal
# Assay: DTP human tumour cell line panel, 48 h
SMILES,TGI [µM],GI50 [µM]
O=c1c2ncn(C3CCCO3)c2n(-c2ccccc2)c(=S)n1-c1ccccc1 (stereo unspecified),> 100,
CC(=O)c1c(O)ccc2c1c1c(n2C)C(=O)c2ccccc2C1=O,> 100,
O=C1CCC/C=C\C[C@H]2C=CC(=O)/C2=C/C[C@H](C/C=C\CC(F)(F)F)O1,0.677,0.311
Oc1cn(-c2ccc(Cl)cc2)nc1-c1n[nH]c(=S)n1-c1ccccc1,27.1,
CC(C)=CCc1cc(O)cc2c1OC(C=C(C)C)C1=C2C(=O)C2=C(C1=O)S(=O)(=O)CCN2 (stereo unspecified),> 16.7,5.05

# Tested on: U251 CNS
# Assay: DTP human tumour cell line panel, 48 h
SMILES,TGI [µM],GI50 [µM]
O=c1c2ncn(C3CCCO3)c2n(-c2ccccc2)c(=S)n1-c1ccccc1 (stereo unspecified),> 100,
CC(=O)c1c(O)ccc2c1c1c(n2C)C(=O)c2ccccc2C1=O,> 100,
O=C1CCC/C=C\C[C@H]2C=CC(=O)/C2=C/C[C@H](C/C=C\CC(F)(F)F)O1,1.75,0.419
Oc1cn(-c2ccc(Cl)cc2)nc1-c1n[nH]c(=S)n1-c1ccccc1,30.4,
CC(C)=CCc1cc(O)cc2c1OC(C=C(C)C)C1=C2C(=O)C2=C(C1=O)S(=O)(=O)CCN2 (stereo unspecified),5.15,2.84

# Tested on: HCT-15 colon
# Assay: DTP human tumour cell line panel, 48 h
SMILES,TGI [µM],GI50 [µM]
O=c1c2ncn(C3CCCO3)c2n(-c2ccccc2)c(=S)n1-c1ccccc1 (stereo unspecified),> 100,
CC(=O)c1c(O)ccc2c1c1c(n2C)C(=O)c2ccccc2C1=O,> 100,
O=C1CCC/C=C\C[C@H]2C=CC(=O)/C2=C/C[C@H](C/C=C\CC(F)(F)F)O1,0.867,0.316
Oc1cn(-c2ccc(Cl)cc2)nc1-c1n[nH]c(=S)n1-c1ccccc1,14.9,
CC(C)=CCc1cc(O)cc2c1OC(C=C(C)C)C1=C2C(=O)C2=C(C1=O)S(=O)(=O)CCN2 (stereo unspecified),> 16.7,5.8

# Tested on: UACC-257 melanoma
# Assay: DTP human tumour cell line panel, 48 h
SMILES,TGI [µM],GI50 [µM]
O=c1c2ncn(C3CCCO3)c2n(-c2ccccc2)c(=S)n1-c1ccccc1 (stereo unspecified),> 100,
CC(=O)c1c(O)ccc2c1c1c(n2C)C(=O)c2ccccc2C1=O,> 100,
Oc1cn(-c2ccc(Cl)cc2)nc1-c1n[nH]c(=S)n1-c1ccccc1,> 100,
CC(C)=CCc1cc(O)cc2c1OC(C=C(C)C)C1=C2C(=O)C2=C(C1=O)S(=O)(=O)CCN2 (stereo unspecified),4.97,2.56

# Tested on: MDA-MB-231 breast
# Assay: DTP human tumour cell line panel, 48 h
SMILES,TGI [µM],GI50 [µM]
O=c1c2ncn(C3CCCO3)c2n(-c2ccccc2)c(=S)n1-c1ccccc1 (stereo unspecified),> 100,
CC(=O)c1c(O)ccc2c1c1c(n2C)C(=O)c2ccccc2C1=O,> 100,
O=C1CCC/C=C\C[C@H]2C=CC(=O)/C2=C/C[C@H](C/C=C\CC(F)(F)F)O1,5.63,0.722
Oc1cn(-c2ccc(Cl)cc2)nc1-c1n[nH]c(=S)n1-c1ccccc1,> 100,
CC(C)=CCc1cc(O)cc2c1OC(C=C(C)C)C1=C2C(=O)C2=C(C1=O)S(=O)(=O)CCN2 (stereo unspecified),8.27,2.99

# Tested on: SK-MEL-2 melanoma
# Assay: DTP human tumour cell line panel, 48 h
SMILES,TGI [µM],GI50 [µM]
O=c1c2ncn(C3CCCO3)c2n(-c2ccccc2)c(=S)n1-c1ccccc1 (stereo unspecified),> 100,
CC(=O)c1c(O)ccc2c1c1c(n2C)C(=O)c2ccccc2C1=O,> 100,
O=C1CCC/C=C\C[C@H]2C=CC(=O)/C2=C/C[C@H](C/C=C\CC(F)(F)F)O1,1.19,0.365
Oc1cn(-c2ccc(Cl)cc2)nc1-c1n[nH]c(=S)n1-c1ccccc1,52.7,
CC(C)=CCc1cc(O)cc2c1OC(C=C(C)C)C1=C2C(=O)C2=C(C1=O)S(=O)(=O)CCN2 (stereo unspecified),6.56,3.13

# Tested on: UACC-62 melanoma
# Assay: DTP human tumour cell line panel, 48 h
SMILES,TGI [µM],GI50 [µM]
O=c1c2ncn(C3CCCO3)c2n(-c2ccccc2)c(=S)n1-c1ccccc1 (stereo unspecified),> 100,
O=C1CCC/C=C\C[C@H]2C=CC(=O)/C2=C/C[C@H](C/C=C\CC(F)(F)F)O1,0.765,0.28
Oc1cn(-c2ccc(Cl)cc2)nc1-c1n[nH]c(=S)n1-c1ccccc1,28,
CC(C)=CCc1cc(O)cc2c1OC(C=C(C)C)C1=C2C(=O)C2=C(C1=O)S(=O)(=O)CCN2 (stereo unspecified),5.46,2.81

# Tested on: SNB-75 CNS
# Assay: DTP human tumour cell line panel, 48 h
SMILES,TGI [µM],GI50 [µM]
O=c1c2ncn(C3CCCO3)c2n(-c2ccccc2)c(=S)n1-c1ccccc1 (stereo unspecified),> 100,
CC(=O)c1c(O)ccc2c1c1c(n2C)C(=O)c2ccccc2C1=O,5.97,
O=C1CCC/C=C\C[C@H]2C=CC(=O)/C2=C/C[C@H](C/C=C\CC(F)(F)F)O1,3.22,0.806
Oc1cn(-c2ccc(Cl)cc2)nc1-c1n[nH]c(=S)n1-c1ccccc1,> 100,
CC(C)=CCc1cc(O)cc2c1OC(C=C(C)C)C1=C2C(=O)C2=C(C1=O)S(=O)(=O)CCN2 (stereo unspecified),6.39,2.6

# Tested on: OVCAR-3 ovarian
# Assay: DTP human tumour cell line panel, 48 h
SMILES,TGI [µM],GI50 [µM]
O=c1c2ncn(C3CCCO3)c2n(-c2ccccc2)c(=S)n1-c1ccccc1 (stereo unspecified),> 100,
CC(=O)c1c(O)ccc2c1c1c(n2C)C(=O)c2ccccc2C1=O,6.47,
O=C1CCC/C=C\C[C@H]2C=CC(=O)/C2=C/C[C@H](C/C=C\CC(F)(F)F)O1,1.75,0.538
Oc1cn(-c2ccc(Cl)cc2)nc1-c1n[nH]c(=S)n1-c1ccccc1,9.4,
CC(C)=CCc1cc(O)cc2c1OC(C=C(C)C)C1=C2C(=O)C2=C(C1=O)S(=O)(=O)CCN2 (stereo unspecified),14.8,1.18
